The text below walks through data of ChEMBL document CHEMBL3045937, “Synthesis and hypoglycemic activity evaluation of 7-alkoxyl-rhein” (2012).

The species named for one experiment is Homo sapiens. As to the kind of experiment: Inhibition of alpha-glucoamylase (unknown origin) assessed as 1-Ki/Kc X 100% at 100 mg/l after 10 min spectrophotometry.
Experiment [1] can be described thus: Inhibition of alpha-glucoamylase (unknown origin) assessed as Ki/Kc at 100 mg/l after 10 min spectrophotometry; values are per cent of control. The following applies: Homo sapiens.
The subject of experiment [2] is Mus musculus. As to the kind of experiment: Hypoglycemic activity in alloxan-induced diabetic Mus musculus (mouse) assessed as blood glucose level at 50 mg/kg, qd for 14 days measured on 7th day (reference value: 19.79 +/- 1.28 mmol/l). The class given is functional.
Experiment [3] concerns Mus musculus. As to the kind of experiment: Hypoglycemic activity in alloxan-induced diabetic Mus musculus (mouse) assessed as blood glucose level at 50 mg/kg, qd for 14 days measured on 14th day (reference value: 19.04 +/- 1.27 mmol/l). The class given is functional.
Experiment [4] has as its system Mus musculus. As to the kind of experiment: Hypoglycemic activity in alloxan-induced diabetic Mus musculus (mouse) assessed as blood glucose level at 20 mg/kg, qd for 14 days measured on 14th day (reference value: 19.04 +/- 1.27 mmol/l). The class given is functional.
For experiment [5], the system named is Mus musculus. Description: Hypoglycemic activity in alloxan-induced diabetic Mus musculus (mouse) assessed as blood glucose level at 20 mg/kg, qd for 14 days measured on 7th day (reference value: 19.79 +/- 1.28 mmol/l). The class given is functional.
The subject of experiment [6] is Mus musculus. Description: Hypoglycemic activity in alloxan-induced diabetic Mus musculus (mouse) assessed as blood glucose level at 10 mg/kg, qd for 14 days measured on 7th day (reference value: 19.79 +/- 1.28 mmol/l). The class given is functional.
The subject of experiment [7] is Mus musculus. Description: Hypoglycemic activity in alloxan-induced diabetic Mus musculus (mouse) assessed as blood glucose level at 10 mg/kg, qd for 14 days measured on 14th day (reference value: 19.04 +/- 1.27 mmol/l). The class given is functional.

The term inhibition denotes the share of the control response that was lost under treatment. As a reminder, the residual activity is the activity still measured, relative to the control.

As to `CCCCCCCCCCCCCCCCOc1cc(O)c2c(c1)C(=O)c1cc(C(=O)O)cc(O)c1C2=O`, the inhibition in the experiment filed under Homo sapiens is 29.8%. Besides, the residual activity in experiment [1] amounted to 70.2%.

`Cc1cc(O)c2c(c1)C(=O)c1cc(O)cc(O)c1C2=O`: the inhibition in the experiment filed under Homo sapiens amounted to 23.6%. Also, in experiment [1], the residual activity amounted to 76.4%.

Consider `CCCCOc1cc(O)c2c(c1)C(=O)c1cc(C(=O)O)cc(O)c1C2=O`, for which the inhibition in the experiment listed under Homo sapiens worked out at 45%. Also, in experiment [1], the residual activity is 55%.

With `CCCCCCOc1cc(O)c2c(c1)C(=O)c1cc(C(=O)O)cc(O)c1C2=O`, the inhibition in the experiment listed under Homo sapiens was 54.5%. Besides, the residual activity in experiment [1] was 45.5%.

Take `CCCCCCCCOc1cc(O)c2c(c1)C(=O)c1cc(C(=O)O)cc(O)c1C2=O`: the Activity in the experiment with Mus musculus [2] was 10.05 mmol/L; with Mus musculus [3], 7.03 mmol/L; with Mus musculus [4], 10.04 mmol/L; in the experiment with Mus musculus [5], 16.79 mmol/L; in the experiment on Mus musculus [6] it was 17.05 mmol/L; in the experiment with Mus musculus [7], 12.03 mmol/L. Further, the inhibition in the experiment filed under Homo sapiens amounted to 60.6%. The residual activity in experiment [1] was 39.4%.

`CCCCCCCCCCCCOc1cc(O)c2c(c1)C(=O)c1cc(C(=O)O)cc(O)c1C2=O`: the inhibition in the experiment listed under Homo sapiens amounted to 50.7%. Moreover, the residual activity in experiment [1] stood at 49.3%.

For the compound `C[C@H]1O[C@H](O[C@H]2[C@H](O)[C@@H](O)[C@@H](O[C@H]3[C@H](O)[C@@H](O)C(O)O[C@@H]3CO)O[C@@H]2CO)[C@H](O)[C@@H](O)[C@@H]1N[C@H]1C=C(CO)[C@@H](O)[C@H](O)[C@H]1O` (some centres not stated) [ACARBOSE], the inhibition in the experiment filed under Homo sapiens amounted to 91.4%. The residual activity in experiment [1] is 8.6%. Also, the values for the Activity with Mus musculus [6] and in the experiment on Mus musculus [7] were 10.58 mmol/L and 6.87 mmol/L, respectively.
